Source: article PMC9782245, “Synthesis and Structural Optimization of 2,7,9-Trisubstituted purin-8-ones as FLT3-ITD Inhibitors” (International Journal of Molecular Sciences, 2022)

Columns and labels:
Format in all cases: biochemical
STK16 = target: T1, STK16 (Homo sapiens, UniProt O75716); assay: Kinase selectivity panel at 1 µM (Eurofins), STK16; settings: read-out: residual enzyme activity STK16
T1 construct: purchased Eurofins Discovery (France)
Description: (§1) Three representative compounds (14d, 14e, and 15a) were profiled in a 1 µM concentration against 30 kinases that were selected as known off-targets of approved CDK4/6 inhibitors. […] Additional sensitive kinases include STK16, EphA1, MEKK2, SRC, and MER (≤10% of residual enzyme activities), which are not targets of the structurally similar CDK4/6 inhibitor, trilaciclib. We also screened compound 15a, an analogue of 14d, bearing isopropyl at position 7 of the purine instead of the methyl group. This change rapidly diminished the potency against CDK4 (dropped to 90% of residual enzyme activity), but the preference for FLT3 remained (1st rank) (Figure 2).
(§2) CDK/cyclin complexes and FLT3 kinases were assayed as previously described. Protein kinase selectivity was evaluated at a single concentration (1 µM) by screening against 30 enzymes at Eurofins Discovery (France).

MER = target: T2, MER (Homo sapiens, UniProt Q12866); assay: Kinase selectivity panel at 1 µM (Eurofins), MER; settings: read-out: residual enzyme activity MER
T2 construct: purchased Eurofins Discovery (France)
T2 sequence (Q12866 21-999): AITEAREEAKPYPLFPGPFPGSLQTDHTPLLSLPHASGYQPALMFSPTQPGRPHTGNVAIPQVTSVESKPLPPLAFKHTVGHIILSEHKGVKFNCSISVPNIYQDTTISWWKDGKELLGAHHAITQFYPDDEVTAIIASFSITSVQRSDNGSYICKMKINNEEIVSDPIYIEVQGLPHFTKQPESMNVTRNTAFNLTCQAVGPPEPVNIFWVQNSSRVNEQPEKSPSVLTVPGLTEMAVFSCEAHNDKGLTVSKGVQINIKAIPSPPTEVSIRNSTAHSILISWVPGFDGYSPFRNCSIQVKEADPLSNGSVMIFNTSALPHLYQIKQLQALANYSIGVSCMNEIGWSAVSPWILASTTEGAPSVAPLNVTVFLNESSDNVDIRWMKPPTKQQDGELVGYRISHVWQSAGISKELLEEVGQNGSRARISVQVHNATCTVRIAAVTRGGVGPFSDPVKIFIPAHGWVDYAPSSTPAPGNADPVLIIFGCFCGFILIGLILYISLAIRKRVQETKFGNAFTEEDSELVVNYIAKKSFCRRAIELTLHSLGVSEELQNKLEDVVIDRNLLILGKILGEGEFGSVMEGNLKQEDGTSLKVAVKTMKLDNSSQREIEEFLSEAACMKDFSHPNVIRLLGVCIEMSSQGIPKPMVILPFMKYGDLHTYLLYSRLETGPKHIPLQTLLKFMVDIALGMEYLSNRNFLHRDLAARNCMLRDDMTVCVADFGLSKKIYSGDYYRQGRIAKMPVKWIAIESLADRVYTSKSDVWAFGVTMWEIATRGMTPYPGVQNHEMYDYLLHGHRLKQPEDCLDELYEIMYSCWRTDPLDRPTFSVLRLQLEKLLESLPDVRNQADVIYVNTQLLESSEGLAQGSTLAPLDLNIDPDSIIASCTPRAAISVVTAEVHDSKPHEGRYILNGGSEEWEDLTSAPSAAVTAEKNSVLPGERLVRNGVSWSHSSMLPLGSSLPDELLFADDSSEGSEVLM
Description: as §1, §2

EphA1 = target: T3, EphA1 (Homo sapiens, UniProt P21709); assay: Kinase selectivity panel at 1 µM (Eurofins), EphA1; settings: read-out: residual enzyme activity EphA1
T3 construct: purchased Eurofins Discovery (France)
T3 sequence (P21709 26-976): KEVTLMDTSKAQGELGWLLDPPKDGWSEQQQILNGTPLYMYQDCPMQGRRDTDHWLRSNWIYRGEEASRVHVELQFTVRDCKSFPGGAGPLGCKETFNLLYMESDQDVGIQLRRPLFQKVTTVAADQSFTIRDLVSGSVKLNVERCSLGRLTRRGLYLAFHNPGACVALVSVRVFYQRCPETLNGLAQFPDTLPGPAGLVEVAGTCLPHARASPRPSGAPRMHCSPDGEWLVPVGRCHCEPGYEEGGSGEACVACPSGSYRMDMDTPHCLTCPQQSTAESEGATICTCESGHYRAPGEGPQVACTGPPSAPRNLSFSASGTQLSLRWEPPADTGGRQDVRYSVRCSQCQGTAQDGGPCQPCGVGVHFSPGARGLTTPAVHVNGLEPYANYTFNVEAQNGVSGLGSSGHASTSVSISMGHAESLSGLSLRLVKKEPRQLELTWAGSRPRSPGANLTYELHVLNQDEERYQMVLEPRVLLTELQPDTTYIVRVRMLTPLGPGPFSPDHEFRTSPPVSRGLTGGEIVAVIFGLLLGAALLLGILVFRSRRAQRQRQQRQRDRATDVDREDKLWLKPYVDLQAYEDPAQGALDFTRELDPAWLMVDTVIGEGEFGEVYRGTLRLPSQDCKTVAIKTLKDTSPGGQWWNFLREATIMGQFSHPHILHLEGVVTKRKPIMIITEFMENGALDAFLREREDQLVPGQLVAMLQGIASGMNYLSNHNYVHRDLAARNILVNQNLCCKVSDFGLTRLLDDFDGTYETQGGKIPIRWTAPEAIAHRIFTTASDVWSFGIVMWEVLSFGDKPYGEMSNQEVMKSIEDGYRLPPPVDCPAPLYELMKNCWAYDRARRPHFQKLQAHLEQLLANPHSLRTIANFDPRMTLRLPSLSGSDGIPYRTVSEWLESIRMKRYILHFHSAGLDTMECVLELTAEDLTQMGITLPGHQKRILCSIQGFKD
Description: as §1, §2

MEKK2 = target: T4, MEKK2 (Homo sapiens, UniProt Q9Y2U5); assay: Kinase selectivity panel at 1 µM (Eurofins), MEKK2; settings: read-out: residual enzyme activity MEKK2
T4 construct: purchased Eurofins Discovery (France)
T4 sequence (Q9Y2U5 1-619): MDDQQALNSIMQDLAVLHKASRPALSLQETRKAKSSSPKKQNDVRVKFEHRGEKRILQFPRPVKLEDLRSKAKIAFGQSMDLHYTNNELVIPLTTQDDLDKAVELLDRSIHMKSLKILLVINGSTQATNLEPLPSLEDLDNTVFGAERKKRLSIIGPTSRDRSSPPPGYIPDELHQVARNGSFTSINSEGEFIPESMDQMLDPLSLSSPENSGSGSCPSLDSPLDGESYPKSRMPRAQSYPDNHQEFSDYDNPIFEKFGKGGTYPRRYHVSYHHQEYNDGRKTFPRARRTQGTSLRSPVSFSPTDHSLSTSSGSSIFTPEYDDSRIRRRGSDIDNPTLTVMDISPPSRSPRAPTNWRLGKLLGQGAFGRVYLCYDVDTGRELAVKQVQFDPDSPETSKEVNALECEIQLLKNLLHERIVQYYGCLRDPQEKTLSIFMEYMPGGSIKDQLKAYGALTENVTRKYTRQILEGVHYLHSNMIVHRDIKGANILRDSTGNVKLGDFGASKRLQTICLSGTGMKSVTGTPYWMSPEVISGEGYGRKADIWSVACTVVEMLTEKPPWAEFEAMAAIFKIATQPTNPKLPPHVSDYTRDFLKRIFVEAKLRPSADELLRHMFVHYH
Description: as §1, §2

Measured: remaining activity at 1 µM

T1 sequence (O75716 whole entry): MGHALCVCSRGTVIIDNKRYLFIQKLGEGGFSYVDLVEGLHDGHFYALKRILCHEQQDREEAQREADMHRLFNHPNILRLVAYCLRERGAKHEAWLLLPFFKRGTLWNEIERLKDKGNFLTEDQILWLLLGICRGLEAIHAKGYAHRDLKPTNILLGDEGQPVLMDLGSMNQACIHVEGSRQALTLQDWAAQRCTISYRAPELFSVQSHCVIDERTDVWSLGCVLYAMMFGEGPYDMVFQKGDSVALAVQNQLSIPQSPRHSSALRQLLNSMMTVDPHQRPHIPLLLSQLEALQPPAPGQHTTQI

Cn1c(=O)n(C2CCCC2)c2nc(Nc3ccc(N4CCNCC4)cc3)ncc21 [14d]
≤ 10%: STK16 | MER | EphA1 | MEKK2

Cn1c(=O)n(C2CCCCC2)c2nc(Nc3ccc(N4CCNCC4)cc3)ncc21 [14e]
≤ 10%: STK16 | MER | EphA1 | MEKK2
